Columns and labels:
Caco-2 cell monolayer = assay: Absorption assessment in Caco-2 cell monolayer (A->B permeability)
Description: (§1) A Caco-2 cellular model was used to study the effect of the stevia solubilizer on the intestinal absorption of vitamin B12. The Caco-2 cell monolayer model is the pharmaceutical industry standard for predicting human oral absorption. The test samples included:

[1] = Stability of vitamin B12 in simulated gastric fluid (HPLC-UV); format: physicochemical; settings: 37° C.
Experimental: The pH of simulated gastric fluid was measured. […] The solutions were incubated at 37° C. in the water bath of a shaker operated at 50 rpm. After 2 hrs. of incubation, 1 mL solution was taken for HPLC analysis.
The pure vitamin B12 (F4) was also reconstituted in gastric fluid as an unformulated control. Both sample solutions were made to contain 20 μg/ml vitamin B12, wrapped with aluminum foil to avoid exposure to light, and incubated at 37° C. for two hours. The solutions were then stored in a freezer for 22 hrs. The frozen samples were thawed to room temp before HPLC-UV analysis.

[2] = rat, in vivo, po
Experimental: Rats (n=6 per group) were orally administered at a dose equivalent to 2 mg/70 kg person in a free form (unformulated control F4) or a formulation of Formula 1 (API:Stevia at 1:25 w/w), Formula 2 (API:Stevia at 1:50 w/w), or Formula 3 (API:Stevia at 1:125 w/w).
To answer the question whether the solubilizer enhanced the absorption of vitamin B12, the four formulations were assessed in a Sprague Dawley rat model at the vitamin B12 dose equivalent to 1 mg/70 kg person. Each group (formulation) had 6 rats (n=6). Each rat was orally gavaged and blood collected at 11 time points during a 12-hour period. The plasma samples were stored in a freezer prior to vitamin B12 analyses. Relative bioavailability was calculated by comparing the area under the time-concentration curves of formulated over the unformulated control.
Vitamin B12 in rat plasma over time after oral gavage with baseline normalized for all treatments were analyzed by a radioimmunoassay method. The vitamin B12 in rat plasma over a 12-hr period at 15, 30, 45, 60, 90 min, and 2, 2.5, 4, 6, 8, and 12 h after oral gavage at a dose equivalent to 2 mg/70 kg person in a free form (unformulated control) or a formulated form of Formula 1 (vitamin B12:stevia at 1:25 w/w), Formula 2 (vitamin B12:stevia at 1:50 w/w), or Formula 3 (vitamin B12:stevia at 1:125 w/w) were analyzed.

[3] = Absorption assessment in Caco-2 cell monolayer (A->B permeability); settings: human, Caco-2, Mean A->B Papp, assay duration 2 hr; controls 10 μM, formulations analyte test conc. 20 μg/mL
Description: as §1

Permeability across Caco-2 cell monolayer (Caco-2 cell monolayer)	Mean A->B Papp (Caco-2 cell monolayer; assay duration 2 hr, controls 10 μM, formulations analyte test conc. 20 μg/mL)	Stability of vitamin B12 in gastric fluid ([1]; over a two hour period, 20 μg/ml)	R.E. (relative error) 2 hr ([1]; simulated gastric fluid, 2 hr) [%]	Determined Concentration 2 hr ([1]; simulated gastric fluid, 2 hr, 0 hr 20.2 μg/mL) [µg/mL]	Time during which vitamin B12 in plasma was detected [2] [min]	Tmax (the time at which Cmax is reached) [2] [h]	Papp A→B at 2 h, 10 μM [3] [×10⁻⁶ cm/s]	Compound
not permeable	<LLOQ^c	stable	3.7	21.0	480	1.5	–	C/C1=C2/[N-][C@H]([C@H](CC(N)=O)[C@@]2(C)CCC(=O)NC[C@@H](C)OP(=O)([O-])O[C@H]2[C@@H](O)[C@@H](n3cnc4cc(C)c(C)cc43)O[C@@H]2CO)[C@]2(C)N=C(/C(C)=C3N=C(/C=C4N=C1[C@@H](CCC(N)=O)C\4(C)C)[C@@H](CCC(N)=O)[C@]\3(C)CC(N)=O)[C@@H](CCC(N)=O)[C@]2(C)CC(N)=O.[CH3-].[Co+3] [Formula F4, methylcobalamin]
–	–	–	–	–	–	–	0.3	CNC(=C[N+](=O)[O-])NCCSCc1ccc(CN(C)C)o1 [Ranitidine]
